row,SMILES,melting point
1,CCCc1nc2c(N)nc3cc(OCCOCCCl)ccc3c2s1,101 to 103 °C
2,CCCCCCCCCCCCCCOc1ccc2cc(C(=O)O)oc2c1,131 to 135 °C
3,Cc1cccc(-n2ccc(=O)c(-c3ccnn3-c3ccccc3)n2)c1,115 to 116 °C
4,Cc1c(NC(=O)CC(C)(C)C)cc2c(c1C)OC(C)(C)C2(O)Cc1ccccc1 (centres undefined),212 to 213 °C
5,NCc1c(NC2CCCCC2)cccc1-c1ccccc1,95 to 96 °C
6,CN1CC(CCCl)Oc2ccccc2C1=O (centres undefined),97 to 107 °C
7,O=C1CCC(c2ccccc2)(c2ccccc2)C2CN(C(Cc3ccccc3)=NCc3ccc(F)cc3)CC12 (centres undefined),180 °C
8,C[C@@H]1N=C(c2ccccc2Cl)c2cc(I)sc2NC1=O,235 to 237 °C
9,O=c1c2ccccc2sc2ccc(O)cc12,232 to 241 °C
10,C#CCNC(=O)c1ncn2c1[C@@H]1CCN1C(=O)c1ccccc1-2,214 to 215 °C
11,Cc1cc(-c2cc([N+](=O)[O-])ccc2F)cc(C)n1,169 to 171 °C
12,COc1cccnc1C(c1cc(F)ccc1F)S(=O)(=O)c1ccc(Cl)cc1 (centres undefined),184 to 185 °C
13,CCOC(=O)c1cnn2c(C=O)c(Cc3cccc(F)c3C)c(-c3ccccc3)c2c1Cl,110 to 111 °C
14,CC(C)(C)COCCOc1ccc(OCC(O)CNCCNC(=O)N2CCOCC2)cc1 (centres undefined),90 °C
15,Cc1nc(N2CCN(C(=O)c3ccc(F)cc3)C2=O)sc1C(=O)NCc1ccccc1,130 to 132 °C
16,C[C@H]1CCCC(C)(C)[C@@H]1[C@H](O)c1ccc(OC(F)(F)F)cc1,29 to 33 °C
17,COc1ccc2[nH]cc(C3=CCC(N4CCN(c5cccc(Cl)n5)CC4)CC3)c2c1 (centres undefined),210 to 213 °C
18,CC1(C)C(C=C(Br)Br)C1C(=O)OCc1cccc(Oc2ccccc2)c1 (centres undefined),93 °C
19,CC(C)c1cc(-c2c3ccccc3c(Br)c3sc4ccccc4c23)cc(C(C)C)c1O,189 to 190 °C
20,NC(=O)c1c(F)ccc(OCc2nc3ncccc3o2)c1F,180 to 181 °C
21,N#CCC1CCN(c2ccc(N3C[C@H](CO)OC3=O)cc2)CC1,110 to 112 °C
22,COc1c(Cl)ccc(-c2nc(C(=O)OCc3ccc(OC(F)(F)F)cc3)c(Cl)c(N)c2F)c1F,155 to 156 °C
23,O=C(O)c1ccc(-c2cnc3c(c2)N(Cc2ccccc2)C(=O)CN3)cc1,> 200 °C
24,Nc1nc(SCCC(=O)c2ccccc2)c2[nH]cnc2n1,204 to 205 °C
25,CCOC(=O)C1=Cc2cc(N)ccc2OC1C(F)(F)F (centres undefined),111 to 115 °C

row,SMILES,melting point
1,Cc1cc2c(cc1C(=O)CBr)C(C)(C)CC(C)C2(C)C (centres undefined),68 °C
2,COc1ccc2c(c1)c(CC(=O)N(O)C1CCCCC1)c(C)n2C(=O)c1ccc(Cl)cc1,208 to 210 °C
3,O=S(=O)(/C=C/c1ccc(Cl)cc1)Nc1ccc(F)cc1,105 to 107 °C
4,CCOc1ccc(C2(C(=O)O)CC(F)(F)C2(F)F)cc1 (centres undefined),194 °C
5,CC(=O)NC1CC(=O)CC(=O)C1,181 to 183 °C
6,Cc1ccc(S(=O)(=O)NC(=O)Nc2ccc(C(F)(F)F)cc2)cc1,194 to 197 °C
7,Cc1cc(-c2csc(-c3ccc(C(=O)O)cc3)n2)c(C)s1,239 to 240 °C
8,Cn1c(COc2ccc(CC3SC(=O)NC3=O)cc2)nc2cc(Br)cnc21 (centres undefined),204 to 205 °C
9,OC(CCc1cccnc1)CSc1ccc(C2CCCCC2)cc1 (centres undefined),49 °C
10,COc1ccc(CNC(=O)C(C)=NNc2ccc(Cl)cc2)cc1,156 to 158 °C
11,CCOC(=O)CN1C(=O)CSC1=NN=C(C)C,60 to 62 °C
12,COC(=O)C(CCCc1cc(C(C)(C)C)c(O)c(C(C)(C)C)c1)S(=O)(=O)C(CCCc1cc(C(C)(C)C)c(O)c(C(C)(C)C)c1)C(=O)OC (centres undefined),68 to 69 °C
13,CCOc1c(NCc2c(C)cc(C)cc2Cl)c(=O)c1=O,292 to 294 °C
14,Nc1ncc(-c2ccc(=O)[nH]n2)c(-c2cccs2)n1,265 °C
15,CC1(CC(=O)O)CCc2ccc3ccccc3c2C1=O (centres undefined),80 to 83 °C
16,Nc1ccn(C2OC(CO)C(O)C2O)c(=O)c1Cl (centres undefined),197 to 199 °C
17,CC(=O)O[C@H]1CC[C@H](c2ccc(CCl)cc2)CC1,87 to 89 °C
18,c1ccc(-c2nc(COc3ccc(CCCCn4ccnc4)cc3)co2)cc1,113 to 114 °C
19,O=C(O)Cn1c2c([nH]c(=O)c1=O)CCC1=C2C=C(n2ccc(CN3CCN(c4ccc([N+](=O)[O-])cc4)CC3)c2)CC1,> 300 °C
20,"COC(=O)C1=C(C)NC(C)=C(C(=O)O)C1c1ccccc1C(F)(F)F (single isomer, unassigned; (+))",109 °C
21,Cc1cc(SCc2ccc(OCc3ccc(Cl)cc3Cl)cc2)ccc1OCC(=O)O,101 to 103 °C
22,Cc1nn(-c2ccc(Cl)cc2Cl)c(=O)n(C)c1=O,109 to 110 °C
23,CCCC1N=C2C(=C(C)C(Cl)=NC2(N)CCOCCNC(=O)c2ccccc2)N1 (centres undefined),188 to 189 °C
24,CCCCc1oc2ccccc2c1C(=O)NCc1ccc2c(-c3ccc(C(C)(C)C)cc3)c(OCC#N)ccc2c1,162 to 164 °C
25,CS(=O)(=O)NCCCCCCCCCCCn1c2c(c3ccccc3c1=O)C(=O)c1ccccc1-2,136 to 137 °C

row,SMILES,melting point
1,Nc1ncc(Cc2ccccc2)cc1Br,110 to 111 °C
2,CSc1c(N)nc(N2CCOCC2)nc1Cl,115 °C
3,COc1cc(C2=Nc3ccc(N4CCCC4)cc3C(=O)C2)ccc1O,310 to 312 °C
4,O=C(O)c1csc(NC(=O)C(CC2CCCC2)c2ccc(Cl)c(Cl)c2)n1 (centres undefined),285 to 287 °C
5,COc1cc(C=CC(=O)Nc2cnc3c(C)cc(C)cc3c2-c2ccc(F)cc2)cc(OC)c1OC(C)=O,260 to 261 °C
6,COc1cc(N)c(OC)c(OC)c1OC,99 to 100 °C
7,Cc1ccc(S(=O)(=O)N2CCCC2c2ccc(C(F)(F)F)cc2)cc1 (racemic),99 °C
8,COC1=C(C(=O)c2ccc(Cl)cc2Cl)C(=O)CCC1,81 to 86 °C
9,c1cnc(NCc2ccc(-c3n[nH]c4c3Cc3ccccc3-4)s2)nc1,232 to 233 °C
10,Oc1nc(Cc2ccc(F)cc2F)ncc1F,155 to 156 °C
11,CCc1nccn1N=Cc1ccccc1,67 to 68 °C
12,CCN1c2cscc2CNc2ccccc21,85 to 87 °C
13,COc1ccccc1Oc1c(Cl)nc(N2CCOCC2)nc1NS(=O)(=O)c1ccc(C(C)C)cn1,168 to 176 °C
14,N#CCCNC(=O)c1cccc(-c2cccc3sc(Cc4ccc(F)c(F)c4)cc23)c1,123 to 124 °C
15,Cc1oc(-c2ccccc2)nc1COc1ccc2c(c1)CCC(CC1SC(=O)NC1=O)C2 (centres undefined),194 to 195 °C
16,CC(C)C[C@H](NC(=O)COc1ccc(Cl)cc1)C(=O)N[C@@H](C(C)C)[C@@H](O)c1c(-c2ccccc2)c1=O,88 to 90 °C
17,CCOC(=O)C1=Cc2cc(-c3ccc(OC(F)(F)F)cc3)ccc2OCC1,59 to 63 °C
18,CCOc1ccccc1C=C1CCc2c1oc1ccc(C(=O)O)cc1c2=O,300 to 302 °C
19,CCCCC(=O)c1c(CN2CCOCC2)nc2cc(OC)c(OC)cc2c1-c1ccc(OC)c(OC)c1,137 to 138 °C
20,O=C1c2ccccc2-n2cnc(Cl)c2[C@@H]2CCCN12,233 to 234 °C
21,CCCCCCCCCOc1ccc2c(c1)C(CCNC(=O)CCC)CC2 (centres undefined),53 to 55 °C
22,CCCCCCN(CCCCCC)C(=O)COc1cc(C(=O)O)c([N+](=O)[O-])c(C(=O)O)c1,180 to 184 °C
23,CCn1cc(C(=O)O)c(=O)c2cnc(N3CCN(Cc4ccc(OC)cc4)CC3)nc21,136 °C
24,CC(C)n1c(S(=O)(=O)c2ccc(O)cc2)nc2ccccc21,198 °C
25,COCCNC(=O)c1cccc(-c2cccc3c2nc(Oc2ccc(Cl)c(F)c2)n3C)c1,150 to 151 °C

row,SMILES,melting point
1,CN(CCO)c1ccnc(CO)c1Cl,49 to 53 °C
2,Nc1nsnc1NCCCOc1cccc(CN2CC=CCC2)c1,99.5 to 104 °C
3,Cc1ccc(Cl)cc1-n1c(CF)nc2ccc(N)cc2c1=O,214 to 216 °C
4,CSc1sc(-c2cccnc2)c2c1-c1oncc1C(C)(C)C2,123 to 125 °C
5,Cc1c(C(=O)O)cc(O)c2cc(-c3ccc4c(c3)C(C)(C)CCC4(C)C)ccc12,266 °C
6,O=CNCCSc1ccc2nccn2n1,148 to 151 °C
7,CCNC(=O)c1c([Si](C)(C)C)ccc(/C=C/[N+](=O)[O-])c1Cl,104 to 106 °C
8,O=C1C2=C(C(=O)c3ccccc31)C(=O)C1CC(Cl)=CCC1C2=O (centres undefined),221 to 222 °C
9,Cc1c(Cl)cc(C2=NNC(=O)C(S)C2)cc1Cl (centres undefined),184 to 187 °C
10,CS(=O)(=O)Nc1ccccc1SCc1ncon1,106 °C
11,CSC(=NCCSCc1[nH]cnc1C)NC#N,148 to 150 °C
12,Cc1cc(C)n(CCOc2cc3c(cc2C)OC2(CC(C)(C)c4cc(O)c(C)cc4O2)CC3(C)C)n1 (centres undefined),223 to 225 °C
13,COc1cccc(-c2nc(=O)c3ccccc3s2)n1,226 °C
14,CCOC(=O)c1ncn2c1CN(C)C(=O)c1c(C)cccc1-2,146 to 147 °C
15,c1ccc(-c2cn3ccccc3n2)cc1,135 to 137 °C
16,C=CCOc1cc2c(cc1CC=C)CCC(=O)N2,137 to 139 °C
17,NS(=O)(=O)c1ccc(-c2nn3c(-c4ccc(F)cc4)coc3c2-c2ccc(F)cc2)cc1,235 to 237 °C
18,CCOc1nn(-c2c(Cl)cc(C(F)(F)F)cc2Cl)c(N)c1C(=O)c1cc(C)ccc1C,99 to 101 °C
19,CC(C)c1ccc(NC(=O)C2CCCc3c(OCc4ccccc4)cccc32)cc1 (centres undefined),170 °C
20,CC1CC2(C)C(CCC3C2CCC2(C)C(OCc4ccccc4)CCC32)CC1=O (centres undefined),116 to 120 °C
21,CC(C)c1ccc(C(=O)C2=C(O)C(=O)N(c3ncc(S(=O)(=O)c4ccc([N+](=O)[O-])cc4)s3)C2c2ccc(C(F)(F)F)cc2)cc1 (centres undefined),300 to 302 °C
22,O=C(NNS(=O)(=O)c1ccccc1)c1ccccc1CCc1ccccc1,158 to 159 °C
23,Brc1ccc2oc(Cc3cccs3)cc2c1,84 to 86 °C
24,O=c1[nH]c(=Cc2ccc(OCc3ccccc3)cn2)c(=O)[nH]c1=Cc1ccccc1,223 to 225 °C

# Source: a melting point compilation (Tetko et al.; mined from patent text by program, amines drawn as free bases though some values may be those of a salt)
